Laboratory results from patent US7718808B2, “Thiazole derivatives” (Kyowa Hakko Kirin Co., Ltd., priority 2003, dated 2010).

Tests used:
[1] = target: T1, Rat Adenosine A2A Receptor (Rattus norvegicus, UniProt P30543); assay: Adenosine A2A receptor binding test (3H-CGS21680 binding, rat corpus striatum); details: test compound 10^−7 mol/L, 25° C., 120 minutes, read-out: Rat Adenosine A2A Receptor Binding Inhibition rate (%) (10^−7 mol/L)
T1 construct: tissue Nippon SLC (animals); host or cells: rat (SD) corpus striatum membrane homogenate
Experimental: This test was carried but in a similar manner to a Bruns et al's method (Molecular Pharmacology, Vol. 29, p. 331, 1986).
Corpus striatum of rats (SD rat, by Nippon SLC) was suspended in 50 mL of an ice-cooled 50 mmol/L tris(hydroxymethyl)aminomethane hydrochloride (Tris-HCl) buffer (pH 7.7) using a polytron homogenizer (by Kinematica). The resulting homogenate was centrifuged (48,000×g, 20 minutes), and the resulting precipitate was again suspended by adding the same amount of a 50 mmol/L Tris-HCl buffer, followed by centrifugation under the same condition. The resulting final precipitate was suspended by adding a 50 mmol/L Tris-HCl buffer [containing 10 mmol/L magnesium chloride, adenosine deaminase 0.02 units/mg tissue (by Sigma)] so that the tissue concentration was 5 mg (wet weight)/mL.
To 100 μL of the above purified tissue suspension, were added 80 μL (final concentration […]) of tritium-labeled CGS-21680 {^3H-2-[p-(2-carboxyethyl)phenethylamino]-5′-(N-ethylcarboxamido)-adenosine: 40 curies/mmol; by New England Nuclear [The Journal of Pharmacology and Experimental Therapeutics, Vol. 251, p. 888, 1989]} and 20 μL of a test compound solution (10^−7 mol/L; a solution of a test compound in DMSO was diluted with Tris-HCl buffer). The resulting mixture was allowed to stand at 25° C. for 120 minutes, followed by rapid suction filtration through a glass fiber paper filter (GF/C; by Whatman). The filter was immediately washed three times with 200 μL of an ice-cooled 50 mmol/L Tris-HCl buffer. The glass fiber paper filter was transferred into a vial, Microscinti (by Perkin Elmer) was added thereto, and the radioactivity level was measured with Topcount (by Perkin Elmer).
The inhibition rate of the test compound to the adenosine A2A receptor binding (^3H-CGS21680 binding) was calculated according to the following formula.
Amount of total binding means the ^3H-CGS21680 binding radioactivity content in the absence of the test compound. Amount of non-specific binding means the ^3H-CGS21680 binding radioactivity content in the presence of 100 μmol/L cyclopentyladenosine (CPA; by Sigma). Amount of binding in the presence of test compound means the ^3H-CGS21680 binding radioactivity content in the presence of 10^−7 mol/L of the test compound.

[2] = system: MPTP-treated common marmoset; assay: Effect in Parkinson's disease model (MPTP-treated common marmoset), motor disability score; format: in vivo; details: oral administration, 10 mg/kg; MPTP-treated common marmosets; scored at 30 minute intervals for 8 hours
From the text: Parkinson's disease is a disorder based on the degeneration and lack of dopaminergic neurons in the nigro-striatal pathway. In the primates, treatment with a dopamine neurotoxin, that is MPTP, causes selective degeneration and lack of the dopaminergic neurons in the nigro-striatal pathway and causes a symptom such as akinesia and muscular rigidity. The MPTP-treated primate is known as a Parkinson's disease model (Proceedings of the National Academy of Science USA, Vol. 80, p. 4546, 1983). Also, common marmoset belongs to Anthropoidea, and is known to have parkinsonism caused by MPTP like others of Anthropoidea (Neuroscience Letter, Vol. 57, p. 37, 1985).
The experiment was carried out using four male and female common marmosets of 2 or 3 years old (body weight, 300 to 375 g, by Nippon Clea) per group. […] The motor disability of the animals before the administration of the test compound was scored, and this was compared with the motor disability score after orally administration of the test compound (Compound 1) in a dose of 10 mg/kg. As, the parkinsonian symptoms, the motor disabilities were scored at intervals of 30 minutes for 8 hours, by observation through a one-way viewing window. The spontaneous locomotor activity was measured at intervals of 30 minutes for 12 hours by a computer-controlled automatic measuring apparatus. […]

T1 sequence (P30543 whole entry): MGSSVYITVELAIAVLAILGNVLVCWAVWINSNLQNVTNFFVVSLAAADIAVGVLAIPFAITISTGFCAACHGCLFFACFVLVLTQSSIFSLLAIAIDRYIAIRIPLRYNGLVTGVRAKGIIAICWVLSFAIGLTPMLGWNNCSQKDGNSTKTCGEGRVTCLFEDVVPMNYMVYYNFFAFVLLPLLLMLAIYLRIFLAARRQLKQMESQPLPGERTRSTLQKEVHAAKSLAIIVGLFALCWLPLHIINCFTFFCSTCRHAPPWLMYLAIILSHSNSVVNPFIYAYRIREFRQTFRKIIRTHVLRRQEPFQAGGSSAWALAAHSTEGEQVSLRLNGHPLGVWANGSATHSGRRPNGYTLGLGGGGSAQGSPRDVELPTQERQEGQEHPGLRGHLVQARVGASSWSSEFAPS

inhibition at 0.1 µM [1]: 90%
Compound: O=C(Nc1nc(-c2ccco2)c(-c2ccncc2)s1)c1ccncc1 [Compound 1, N-[4-(2-Furyl)-5-(4-pyridyl)thiazol-2-yl]pyridine-4-carboxamide]
remission of the parkinsonian symptoms (motor disability score before vs after administration) [2]: effective for remission of the parkinsonian symptoms
